Columns and labels:
Format in all cases: physicochemical
[1] = Ozone gas fastness test of a recorded image; details: ozone 40 ppm, 60% RH, 24° C., 3 hours, glossy paper
Method: A liquid of a composition shown in the following Table 3 is prepared using a compound (Compound No. 1) obtained in (2) of the above Example 1, followed by filtration with a 0.45 μm membrane filter to obtain each water-based ink composition for inkjet recording. Ion exchange water was used as water. In addition, water and ammonia water were added thereto to adjust the pH of the ink composition to 7 to 10 and a total amount of the ink composition to 100 parts. The test using the compound obtained in (2) of Example 1 is Example 7. Similarly the tests using the compounds obtained in Examples 2 to 6 are Examples 8 to 12 respectively. Using an inkjet printer (Pixus 860i from Canon Inc.), inkjet recording was conducted on glossy paper having an ink-receiving layer containing a porous white inorganic substance (Professional Photopaper PR-101 from Canon Inc.). In inkjet recording, an image pattern was made so as to obtain gradations of several stages in printing density, and a print was made. Using an ozone weatherometer (from Suga Testing Machine Co., Ltd.), a piece of testing paper printed on glossy paper from Canon, Inc. was left for 3 hours under conditions of ozone concentration of 40 ppm, humidity of 60% RH and temperature of 24° C., and color difference (ΔE) before and after the test was measured and evaluated on 3 levels. • ΔE≦20 . . . ∘ • 20<ΔE≦40 . . . Δ • 40<ΔE . . . x

[2] = Xenon light fastness test of a recorded image; details: xenon weatherometer Ci4000, 50 hours, 0.36 W/m^2, 2 mm glass plate and air layer, printed glossy paper and plain paper
Method: (§1) A liquid of a composition shown in the following Table 3 is prepared using a compound (Compound No. 1) obtained in (2) of the above Example 1, followed by filtration with a 0.45 μm membrane filter to obtain each water-based ink composition for inkjet recording. Ion exchange water was used as water. In addition, water and ammonia water were added thereto to adjust the pH of the ink composition to 7 to 10 and a total amount of the ink composition to 100 parts. The test using the compound obtained in (2) of Example 1 is Example 7. Similarly the tests using the compounds obtained in Examples 2 to 6 are Examples 8 to 12 respectively.
(§2) Using an inkjet printer (Pixus 860i from Canon Inc.), inkjet recording was conducted on glossy paper having an ink-receiving layer containing a porous white inorganic substance (Professional Photopaper PR-101 from Canon Inc.). In inkjet recording, an image pattern was made so as to obtain gradations of several stages in printing density, and a print was made.
Using a xenon weatherometer Ci4000 (from ATLAS Co., Ltd.), pieces of testing paper of printed glossy paper and plain paper from Canon, Inc., on which a glass plate having a thickness of 2 mm and an air layer were set up, were irradiated for 50 hours at illuminance of 0.36 W/m^2, and color difference (ΔE) before and after the test was measured and evaluated on 3 levels. • ΔE≦10 . . . ∘ • 10<ΔE≦20 . . . Δ • 20<ΔE . . . x The results are shown in Table 5. (E) Ozone Gas Fastness Test of a Recorded Image

[3] = Evaluation of hue and vividness of a recorded image on glossy paper (colorimetry, GRETAG SPM50); details: for Vividness C*: C*=((a*)^2+(b*)^2)^1/2, glossy paper PR-101; for Vividness C* (3-level evaluation): glossy paper PR-101; for Brilliance L* / Hue a* / Hue b*: inkjet print of Table 3 ink (3.0 parts compound) on glossy paper Professional Photopaper PR-101
Method: as §1, §2
Hue and vividness in a recorded image : recorded paper was measured using a colorimetric system (GRETAG SPM50 from GRETAG Co., Ltd.), values of L*, a* and b* were calculated, and for vividness, C*=((a*)^2+(b*)^2)^1/2 was calculated from color level (a* and b*) where color level a* of each recording paper is similar. And vividness was evaluated on the following 3 levels judging from the measured results and the results are shown jointly in Table 4. • 90≦C* . . . ∘ • 80≦C*<90 . . . Δ

Ozone fastness (color difference ΔE before and after the test, 3 levels) [1]	Light fastness (color difference ΔE before and after the test, 3 levels) [2]	Vividness C* [3]	Vividness C* (3-level evaluation) [3]	Brilliance L* [3]	Hue a* [3]	Hue b* [3]	SMILES
∘ (ΔE≦20)	∘ (ΔE≦10)	101.9	∘ (90≦C*)	68.3	53.5	86.8	Cc1c(C#N)c(NCCS(=O)(=O)O)nc(NCCS(=O)(=O)O)c1N=Nc1nc2ccc(S(=O)(=O)O)cc2s1 [Compound No. 2]
∘ (ΔE≦20)	∘ (ΔE≦10)						Cc1c(C#N)c(NCCS(=O)(=O)O)nc(NCCS(=O)(=O)O)c1N=Nc1nc2ccc(S(C)(=O)=O)cc2s1 [Compound No. 3]
∘ (ΔE≦20)	∘ (ΔE≦10)						Cc1c(C#N)c(NCCS(=O)(=O)O)nc(NCCS(=O)(=O)O)c1N=Nc1nc2ccc(C(=O)O)cc2s1 [Compound No. 5]

Second part, the molecule before the results:

SMILES	Ozone fastness (color difference ΔE before and after the test, 3 levels) [1]	Light fastness (color difference ΔE before and after the test, 3 levels) [2]	Vividness C* [3]	Vividness C* (3-level evaluation) [3]	Brilliance L* [3]	Hue a* [3]	Hue b* [3]
Cc1c(C#N)c(NCCS(=O)(=O)O)nc(NCCS(=O)(=O)O)c1N=Nc1nc2ccccc2s1 [Compound No. 1]	∘ (ΔE≦20)	∘ (ΔE≦10)	109.7	∘ (90≦C*)	66.8	53.7	96.1
COc1ccc2nc(N=Nc3c(NCCS(=O)(=O)O)nc(NCCS(=O)(=O)O)c(C#N)c3C)sc2c1 [Compound No. 4]	∘ (ΔE≦20)	∘ (ΔE≦10)					
Cc1c(C#N)c(NCCS(=O)(=O)O)nc(NCCS(=O)(=O)O)c1/N=N/c1snc2ccc(S(=O)(=O)O)cc12 [Compound No. 8]	∘ (ΔE≦20)	∘ (ΔE≦10)					

— patent US20080011191A1, “Novel Azo Compound or Salt, Ink Composition Comprising Such Azo Compound, and Colored Article” (priority 2004, published 2008)
